“And” between values parts separate entries of the source, which are not always exact repeats. Identical values can stand only once.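 Cultured in 96-well plates, cells were exposed to test compound for 48 hours across five concentrations. The concentration for 50% growth inhibition is given as GI50. TGI: concentration producing complete growth inhibition.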
The compounds below were run on OVCAR-8 ovarian (assay: inhibition of tumour cell growth, NCI panel, 48 h).

Going from `COC(=O)/C=C/c1cc(OC(C)=O)c2c(c1)C(C(=O)OC)C(c1ccc(OC(C)=O)c(OC(C)=O)c1)O2` (stereo unspecified) to `NC(=O)c1cc(I)ccc1NC(=O)/C=C/c1ccccc1`, the GI50 rises from 0.224 µM to 1.18 µM (5.3-fold).

`C=C(C)C(C1C=C(CCC(C=O)=C(C)C)C(=O)O1)C1(OC)C=C(C)C(=O)O1` (stereo unspecified) and `C=CC12CCN(CC1)C(C(O)c1ccnc3ccc(OC)cc13)C2` (stereo unspecified) cannot be ordered by GI50: over 100 µM for the first, over 100 µM for the second.

Going from `O=C(Nc1nc(-c2c[nH]c3ccccc23)cs1)c1n[nH]c(=O)c2ccccc12` to `COc1ccc(CNc2c3ccccc3nc3ccccc23)cc1F`, the GI50 rises from 2.26 µM to 3.52 µM (1.6-fold).

First: CN(C)CCN1CCC(Cc2ccccc2)CC1
Second: O=C(Nc1ncc(Cc2cccc(C(F)(F)F)c2)s1)c1ccc2c(c1)OCCO2
The GI50 of the first is higher: over 80 µM for the first, 0.485 µM for the second.

Compared with `CO[C@@H]1CC[C@]2(C)OC[C@H](C)[C@@H]3C[C@@H](C)[C@@H](OC(C)=O)[C@@H]4[C@H]3[C@@H]2O[C@H]4C[C@@]1(C)O`, `NCCCn1c2c(c3ccc([N+](=O)[O-])cc3c1=O)C(=O)c1cc(I)ccc1-2` is lower in GI50: over 100 µM for the first, 0.0268 µM for the second.

`COC(=O)/C=C/c1cc(OC(C)=O)c2c(c1)C(C(=O)OC)C(c1ccc(OC(C)=O)c(OC(C)=O)c1)O2` (stereo unspecified) and `COc1ccc(/C=C\c2cc(OC)c(OC)c(OC)c2)cc1OCC(=O)O` cannot be ordered by TGI: over 72.9 µM for the first, over 58.2 µM for the second.

Going from `O=C(O)c1ccc(CNCc2ccccc2)cc1` to `COc1ccc(CNc2c3ccccc3nc3ccccc23)cc1F`, the TGI falls from over 100 µM to 19.4 µM.

`C=C(C)C(C1C=C(CCC(C=O)=C(C)C)C(=O)O1)C1(OC)C=C(C)C(=O)O1` (stereo unspecified) and `CC(C)=CCC1=C(O)c2ccccc2C(=O)C1=O` cannot be ordered by TGI: over 100 µM for the first, over 100 µM for the second.

`O=[N+]([O-])c1ccccc1N=Nc1c(O)[nH]c2c(Cl)cc(Cl)cc12` and `O=C(CNc1ccc(Cl)cc1Cl)Nn1c(-c2ccccc2)nc2ccccc2c1=O` cannot be ordered by TGI: over 100 µM for the first, over 100 µM for the second.

`Cc1cc(C(=O)CSC(=S)SC(C)(C)C)ccc1Cl` and `CNc1cc2oc(=O)cc(C)c2cc1C` cannot be ordered by TGI: over 100 µM for the first, over 100 µM for the second.

`C=CC12CCN(CC1)C(C(O)c1ccnc3ccc(OC)cc13)C2` (stereo unspecified) and `CN(C)CCN1CCC(Cc2ccccc2)CC1` cannot be ordered by TGI: over 100 µM for the first, over 80 µM for the second.

First: O=C(Nc1nc(-c2c[nH]c3ccccc23)cs1)c1n[nH]c(=O)c2ccccc12
Second: NC(=O)c1cc(I)ccc1NC(=O)/C=C/c1ccccc1
The TGI of the first is higher: over 67.6 µM for the first, 27.8 µM for the second.

Going from `COc1cc2c3c(n(C)c(=O)c2cc1OC)-c1cc2c(cc1C3=O)OCO2` to `NCCCn1c2c(c3ccc([N+](=O)[O-])cc3c1=O)C(=O)c1cc(I)ccc1-2`, the TGI falls from over 100 µM to 0.234 µM.

`CO[C@@H]1CC[C@]2(C)OC[C@H](C)[C@@H]3C[C@@H](C)[C@@H](OC(C)=O)[C@@H]4[C@H]3[C@@H]2O[C@H]4C[C@@]1(C)O` and `CSC[C@H](NC(=O)COc1cccc2cnccc12)C(=O)NC(Cc1ccccc1)C(O)C(=O)N1CSC[C@H]1C(=O)NC(C)(C)C` (stereo partly specified) cannot be ordered by TGI: over 100 µM for the first, over 100 µM for the second.

With `O=C(Nc1ncc(Cc2cccc(C(F)(F)F)c2)s1)c1ccc2c(c1)OCCO2` the TGI was over 100 µM.

In the case of `CC(C)=CCC1=C(O)c2ccccc2C(=O)C1=O`, the GI50 is reported as > 100 µM and 26.7 µM and 20.8 µM.
In the case of `NC(=S)N/N=C/c1ncccc1O`, the GI50 is reported as 2.58 µM and 0.813 µM.

In the case of `NC(=S)N/N=C/c1ncccc1O`, the TGI is reported as > 72.2 µM and 135 µM.

What follows are compounds tested on RPMI-8226 leukemia (assay: inhibition of tumour cell growth, NCI panel, 48 h).

Going from `Nc1c(C(=O)Nc2ccccn2)sc2nc3c(cc12)C(=O)CCC3` to `Cc1cccc(NC2=C(Cl)C(=O)c3nc(C)ccc3C2=O)c1`, the GI50 falls from 3.24 µM to 1.48 µM (2.2-fold).

First: COc1cc2c(cc1OCCCN1CCN(CCCOc3cc4c(cc3OC)C(=O)N3CC(F)(F)C[C@H]3C=N4)CC1)N=C[C@@H]1CC(F)(F)CN1C2=O
Second: COC(=O)C1=CN(CC2=CC(=O)C(C)=CC2=O)C=C(C(=O)OC)C1c1ccccc1OC
The GI50 of the first is 4.7-fold lower: 2.2 µM for the first, 10.3 µM for the second.

First: COc1cccc2c1O/C(=C\c1ccc([N+](=O)[O-])s1)C2=O
Second: COC(=O)/C=C/c1cc(OC(C)=O)c2c(c1)C(C(=O)OC)C(c1ccc(OC(C)=O)c(OC(C)=O)c1)O2 (stereo unspecified)
The GI50 of the first is 30-fold higher: 1.7 µM for the first, 0.0574 µM for the second.

For `C=C(C)C(C1C=C(CCC(C=O)=C(C)C)C(=O)O1)C1(OC)C=C(C)C(=O)O1` (stereo unspecified), the GI50 was over 100 µM.

Going from `Nc1c(C(=O)Nc2ccccn2)sc2nc3c(cc12)C(=O)CCC3` to `Cc1cccc(NC2=C(Cl)C(=O)c3nc(C)ccc3C2=O)c1`, the TGI falls from over 100 µM to 5.17 µM.

First: COc1cc2c(cc1OCCCN1CCN(CCCOc3cc4c(cc3OC)C(=O)N3CC(F)(F)C[C@H]3C=N4)CC1)N=C[C@@H]1CC(F)(F)CN1C2=O
Second: COC(=O)C1=CN(CC2=CC(=O)C(C)=CC2=O)C=C(C(=O)OC)C1c1ccccc1OC
The TGI of the first is 5.3-fold lower: 7.73 µM for the first, 40.7 µM for the second.

`CCCCCCCCSC1=C(Cl)C(=O)C(OC)=C(OC)C1=O` and `CC(C)=CCC1=C(O)c2ccccc2C(=O)C1=O` cannot be ordered by TGI: over 100 µM for the first, over 100 µM for the second.

`COc1cccc2c1O/C(=C\c1ccc([N+](=O)[O-])s1)C2=O` and `O=[N+]([O-])c1ccccc1N=Nc1c(O)[nH]c2c(Cl)cc(Cl)cc12` cannot be ordered by TGI: over 20.6 µM for the first, over 100 µM for the second.

Going from `COC(=O)/C=C/c1cc(OC(C)=O)c2c(c1)C(C(=O)OC)C(c1ccc(OC(C)=O)c(OC(C)=O)c1)O2` (stereo unspecified) to `C=C(C)C(C1C=C(CCC(C=O)=C(C)C)C(=O)O1)C1(OC)C=C(C)C(=O)O1` (stereo unspecified), the TGI rises from 5.25 µM to over 100 µM.

`O=C(O)c1ccc(CNCc2ccccc2)cc1` and `O=C(CC(=O)Nc1ccccc1)NNC(Sc1ccccc1)c1cc(N=Nc2ccc(Br)cc2)ccc1O` (stereo unspecified) cannot be ordered by TGI: over 100 µM for the first, over 10 µM for the second.

Compared with `NC(=S)N/N=C/c1ncccc1O`, `Cc1cc(C(=O)CSC(=S)SC(C)(C)C)ccc1Cl` is lower in TGI: over 1000 µM for the first, 52.1 µM for the second.

In the case of `COc1ccc2c(=O)oc3c(OC)cc(CCN(C)C)c4c(=O)oc1c2c34`, the GI50 is reported as 18.1 µM and 8.54 µM.
In the case of `NC(=S)N/N=C/c1ncccc1O`, the GI50 is reported as 5.92 µM and 2.07 µM.

With `COc1ccc2c(=O)oc3c(OC)cc(CCN(C)C)c4c(=O)oc1c2c34` the TGI was 41.3 µM and 19.8 µM.

From PubChem BioAssay (NCI)
